{"source": "patent US20110293745A1", "about": "“AURORA KINASE INHIBITORS” (SUNESIS PHARMACEUTICALS, INC., priority 2008, published 2011)", "key": {"[1]": {"tested_on": "HCT 116 p53−/− (p53 RNAi)", "experiment": "In vitro combination, HCS cell count assay (CI50)", "format": "cell-based, human", "details": "p53−/− HCT 116 cells; high doses of vincristine", "description": "Cells were plated in growth medium in black/clear Falcon® 384-well plates. Cells were treated to assess the effects of p53 status, drug dose ratios, and dose schedules. […] All procedures were performed by a Tecan robotic platform."}, "HCT 116 p53+/+": {"tested_on": "HCT 116 p53+/+", "experiment": "In vitro combination, HCS cell count assay (CI50)", "format": "cell-based, human", "details": "HCT 116 p53+/+ and p53−/−; dependent on ratios or p53 status", "procedure": "A combination index compares the concentration of compounds dosed in combination required for a given fractional effect to the concentration of single agent compound required to give the same fractional affect. In this application, the fractional effect is EC50.\nThe equation above represents the theoretical additive response for two mutually exclusive drugs, and takes into consideration the ratio at which the two compounds are dosed. […].\n[…]. High content cell imaging and a cell proliferation assay were used to measure the anti-proliferative effects of the compounds.\nHCT 116 cells transfected with p53 RNAi or a control vector were cultured in DMEM, 10% FBS, and 1× antibiotic/antimycotic. Cells were plated in growth medium in black/clear Falcon® 384-well plates. Cells were treated to assess the effects of p53 status, drug dose ratios, and dose schedules. […]. […] All procedures were performed by a Tecan robotic platform.\nAfter overnight growth, cells were treated with compound for a total of 72 hours and incubated at 37° C., 5% CO2. Cells were fixed in 4% formaldehyde and stained with 1:4000 dilution of 10 mg/mL Hoechst 33342. HCS images were captured and data analyzed using the Target Activation application, object count per field parameter, on the ArrayScan VTI instrument (Cellomics, Inc.)."}}}
{"smiles": "CC[C@]1(O)C[C@H]2CN(CCc3c([nH]c4ccccc34)[C@@](C(=O)OC)(c3cc4c(cc3OC)N(C=O)[C@H]3[C@@](O)(C(=O)OC)[C@H](OC(C)=O)[C@]5(CC)C=CCN6CC[C@]43[C@@H]65)C2)C1", "note": "[vincristine]", "values": [{"measurement": "interaction with Compound 1, co-dosed", "setting": "[1]", "value": "Statistically significant synergy"}, {"measurement": "interaction with Compound 1 in cell count assay", "setting": "HCT 116 p53+/+", "value": "conditional synergies"}]}
